Laboratory results: patent US20110130374A1, “Small Pyrimidine Derivatives and Methods of Use Thereof” (BIOSEARCH(2007) LTD., priority 2009, published 2011)

Tests used:
[1] = tested on: A375 melanoma cells; assay: Transwell cell migration assay, A375 melanoma cells; format: cell-based; conditions: Homo sapiens, A-375; A375 melanoma cells, Transwell 5 μm pore, 24 h, Example 3 (FIGS. 1A, 1E); read-out: IC50 in the migration assay
Procedure: A375 melanoma cells (CRL-1619, American Type Culture Collection (“ATCC”), Manassas Va., USA)) grown in RPMI medium supplement with 10% FBS were starved for 24 hours in FBS free medium. After starvation of 24 hr, 5×10^4 cells in FBS free medium were placed in the upper chamber of 24-well, Transwell apparatus (CORNING TRANS WELL® polycarbonate membrane inserts, 5 μm pore size) with solvent (DMSO/PEG400) or different concentrations of Compound 1 (PRT7000467), Compound 2 (PRT7041128), or Compound 3 (PRT7081582). Medium containing FBS and compounds was added to the bottom chamber. Twenty-four hours later the melanoma cells from the upper chamber were removed with a cotton swab. Cells that migrated to the lower side of the membrane were stained with Calcein-AM (Sigma) and images were taken with fluorescence microscope. The number of migrating cells was quantified by ImageJ software and the IC50 values were calculated using Prism software (Graphpad) (FIG. 1A,1E).
A375 (melanoma) (CRL-1619, ATCC, Manassas, Va., USA), A431 (melanoma) (CRL-2592, ATCC, Manassas, Va., USA), A2058 (melanoma) (CRL-11147, ATCC, Manassas, Va., USA), MDA-MB-231 (breast) (HTB-26, ATCC, Manassas, Va., USA), LS175T (colon) (ATCC, Manassas, Va., USA), HT29 (colon) (HTB-38, ATCC, Manassas, Va., USA), PC3 (prostate) (CRL-1435, ATCC, Manassas, Va., USA), Panc03.27 (pancreatic) (ATCC, Manassas, Va., USA), 4T1 (breast-mouse) (CRL-2539, ATCC, Manassas. Va., USA), D122 (lung-mouse) (the Weizmann Institute of Science), D122-luc (lung-mouse) (the Weizmann Institute of Science), and B16 F10.9 (melanoma-mouse) cells (Caliper Life Sciences, Hopkinton Mass.), were grown in RPMI medium supplemented with 10% FBS. HUVEC cells were grown in Endothelial Cell Growth Medium 2 and THP1 cells were grown in RPMI medium supplemented with 10% FBS, 2 mM L-Glutamine, 1.5 g/L sodium bicarbonate, 10 mM Hepes, 1 mM sodium pyruvate, 4.5 g/L glucose and 0.05 mM 2-mercaptoethanol. The cells were starved for 24 hours in medium without FBS. At the end of the starvation, 5×10^4 cells in medium without FBS were placed in the upper chamber of 24-well, Transwell apparatus (CORNING TRANSWELL® polycarbonate membrane inserts, 5 μm pore size for […] and THP1 cells and 8 μm pore size for all the other cells) with solvent (DMSO/PEG400) or different concentrations of compound 1 (PRT7000467). Medium with FBS and compounds was added to the bottom chamber. Twenty-four hours later the cells from the upper chamber were removed with a cotton swab. Cells that migrated to the lower side of the membrane were stained with Calcein-AM (Sigma) and images were taken with a fluorescence microscope. The number of migrating cells was quantified by ImageJ software and the IC50 values were calculated using Prism software (Graphpad).

[2] = tested on: A375 cells; assay: Cell viability, WST-1 reagent, A375 cells grown in two-dimension; format: cell-based; conditions: WST-1, 72 h post treatment
Procedure: Compound 1 (PRT7000467), Compound 2 (PRT7041128), and Compound 3 (PRT7081582) are not toxic to cells grown in two-dimension. A375 cells were cultured with RPMI and 10% FBS. The cells were treated with different concentrations of Compound 1 (PRT7000467) and Compound 2 (PRT7041128), then the viability of the cells was determined seventy-two hours post treatment using WST-1 reagent (Roche) (FIG. 1B)

## O=C(Nc1ccc(S(=O)(=O)Nc2ncccn2)cc1)/C(=C\c1cccs1)NC(=O)c1cccs1 [Compound 2]
[1]
  IC50: 9.2 µM
[2]
  toxicity to cells grown in two-dimension: not toxic
